# Test results: patent publication US8399466B2, “Composition for regenerative treatment of cartilage disease” (Mitsubishi Tanabe Pharma Corporation, priority 2001, dated 2013)
# Tested on: cAMP hydrolytic PDE expressed in human articular cartilage (fraction Nos. 28-30)
# Experiment: Inhibition of cAMP hydrolyzing activity of fraction Nos. 28-30 of human articular cartilage extract
# Assay type: biochemical
# Description: From the human knee articular cartilage was isolated on surgery of osteoarthrosis patients. Cartilage portion was scrapped with a surgery knife, washed with ice-cold phosphate buffer and stored at −80° C. The cartilage tissues were milled at −80° C. and then, scattered into pieces with homogenizer (Kinematica A.G., Polytron) in ice-cold homogenization buffer (20 mM Tris-HCl, pH 8.0, 1 mM ethylene glycol bis(β-aminoethylether)-N,N,N′,N′-tetraacetic acid, 1 mM dithiothreitol, 10 μg/ml leupeptin, 5 mM benzamidine, 0.2 mM phenylmethylsulfonyl fluoride, 1 mM sodium azide and 5 mM mercaptoethanol). The resultant homogenate was centrifuged (100,000×g; 30 minutes) to separate supernatant.
# The above supernatant was loaded on a Mono Q Sepharose High Performance column (Amersham Pharmacia Biotech) equilibrated with elution buffer (20 mM Tris-HCl, pH 8.0, 1 mM ethylene glycol bis(β-aminoethylether)-N,N,N′,N′-tetraacetic acid, 1 mM dithiothreitol, 2 μg/ml leupeptin, 5 mM benzamidine). After washing the column with 20 ml of elution buffer, proteins were eluted into 1 ml fractions by aqueous sodium chloride solution (concentration gradient: 0 to 1000 mM, 70 ml) under ice-cooling. Each fraction was subjected to the determination of hydrolytic activity (PDE activity) toward cAMP and cGMP as a substrate.
# The determination of PDE activity was performed by a radio-labeled nucleic acid assay. That is, the reaction was initiated by adding from 10 to 50 μl of elution fraction to 500 μl of assay buffer (50 mM Tris-HCl, pH 8.0, 5 mM magnesium chloride, 4 mM 2-mercaptoethanol) containing 1 μM of unlabeled cAMP and 22 nM of [^3H]-cAMP (Amersham Pharmacia Biotech).
# After incubation at 37° C. for 30 minutes, the reaction was quenched by boiling for 1.5 minutes. Then, 100 μl of 1 mg/ml Crtalus atrox snake venom was added and incubated at 37° C. for 30 minutes. After addition of 500 μl of methanol, the reaction solution was subjected to Dowex column (1×8-400). To each eluate was added a liquid scintillation cocktail and the radio activity was measured.
# The inhibitory activity of PDE4 inhibitor on fraction Nos. 28-30 containing potent cAMP hydrolyzing activity was measured according to the above-mentioned radio-labeled nucleic acid assay. The test compounds are Compound (1), Compound (2), Compound (11), Compound (44) and Compound (27).
smiles,measurement,setting,value
CCOc1cc2cc(CO)c(CO)c(-c3ccnc(-n4nc(-c5cccnc5)c5ccccc5c4=O)c3)c2cc1OCC [Compound (2)],inhibition of the hydrolytic activity of the fraction,"fraction Nos. 28-30, FIG. 4",inhibits the hydrolytic activity of the fraction strongly
same,IC50 for fraction(s),"method of Journal of Medicinal Chemistry, vol. 42, 1088-1099 (1999), values only in FIG. 4",consistent with the IC50 of PDE4 inhibition activity described in the same literature
